# Columns and labels:
# rice flat sedge = assay: Test Example 3: herbicidal effect by foliage application, Wagner pot (Table 18, symbol E); format: in vivo, rice flat sedge (Cyperus iria)
# Summary of the method: (§1)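 Plants were sown in alluvial soil held under 0.1–0.5 cm standing water and grown 14 days in a greenhouse at 25–30 °C. An emulsifiable formulation, water-diluted to the set dose, was then sprayed onto the foliage, and effects were scored three weeks later using previously defined criteria.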
# blackgrass [1] = assay: Test Example 4: herbicidal effect by soil treatment (Table 19, symbol J); format: in vivo, blackgrass (Alopecurus myosuroides)
# Summary of the method: (§2)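 In this soil treatment, the formulated compound reached the seeds only through the soil: seeds were buried about 1.5 cm deep in sterilized diluvial soil, then the diluted emulsion was sprayed over the surface. After three weeks at 25° C. to 30° C. in a greenhouse, effects were graded on criteria from an earlier test.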
# windgrass [2] = assay: Test Example 5: herbicidal effect by foliage application, plastic box (Table 20, symbol L); format: in vivo, windgrass (Apera spica-venti); conditions: foliage application, 320 g/ha, evaluated three weeks after application
# Summary of the method: (§3)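 Plants were sown into sterilized diluvial soil under about 1.5 cm cover and kept in a greenhouse at 25° C. to 30° C. Fourteen days on, foliage received an even spray of the diluted emulsion. Herbicidal or crop effect was judged three weeks afterwards.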
# green foxtail [3] = assay: Test Example 5: herbicidal effect by foliage application, plastic box (Table 20, symbol G); format: in vivo, green foxtail (Setaria viridis); conditions: foliage application, 320 g/ha, evaluated three weeks after application
# Summary of the method: as §3
# blackgrass [4] = assay: Test Example 5: herbicidal effect by foliage application, plastic box (Table 20, symbol J); format: in vivo, blackgrass (Alopecurus myosuroides); conditions: foliage application, 320 g/ha, evaluated three weeks after application
# Summary of the method: as §3
# southern crabgrass [5] = assay: Test Example 4: herbicidal effect by soil treatment (Table 19, symbol F); format: in vivo, southern crabgrass (Digitaria ciliaris)
# Summary of the method: as §2
# chickweed [6] = assay: Test Example 4: herbicidal effect by soil treatment (Table 19, symbol P); format: in vivo, common chickweed (Stellaria media)
# Summary of the method: as §2
# persian speedwell [7] = assay: Test Example 4: herbicidal effect by soil treatment (Table 19, symbol R); format: in vivo, Persian speedwell (Veronica persica)
# Summary of the method: as §2
# lambsquarters [8] = assay: Test Example 5: herbicidal effect by foliage application, plastic box (Table 20, symbol O); format: in vivo, lambsquarters (Chenopodium album); conditions: foliage application, 320 g/ha, evaluated three weeks after application
# Summary of the method: as §3
# barnyard grass [9] = assay: Test Example 4: herbicidal effect by soil treatment (Table 19, symbol H); format: in vivo, barnyard grass (Echinochloa crus-galli)
# Summary of the method: as §2
# velvetleaf [10] = assay: Test Example 4: herbicidal effect by soil treatment (Table 19, symbol M); format: in vivo, velvetleaf (Abutilon theophrasti)
# Summary of the method: as §2
# wild oat [11] = assay: Test Example 5: herbicidal effect by foliage application, plastic box (Table 20, symbol I); format: in vivo, wild oat (Avena fatua); conditions: foliage application, 320 g/ha, evaluated three weeks after application
# Summary of the method: as §3
# Italian ryegrass [12] = assay: Test Example 5: herbicidal effect by foliage application, plastic box (Table 20, symbol K); format: in vivo, Italian ryegrass (Lolium multiflorum); conditions: foliage application, 320 g/ha, evaluated three weeks after application
# Summary of the method: as §3
# green foxtail [13] = assay: Test Example 4: herbicidal effect by soil treatment (Table 19, symbol G); format: in vivo, green foxtail (Setaria viridis)
# Summary of the method: as §2
# redroot pigweed [14] = assay: Test Example 5: herbicidal effect by foliage application, plastic box (Table 20, symbol N); format: in vivo, redroot pigweed (Amaranthus retroflexus); conditions: foliage application, 320 g/ha, evaluated three weeks after application
# Summary of the method: as §3
# barnyard grass [15] = assay: Test Example 5: herbicidal effect by foliage application, plastic box (Table 20, symbol H); format: in vivo, barnyard grass (Echinochloa crus-galli); conditions: foliage application, 320 g/ha, evaluated three weeks after application
# Summary of the method: as §3
# southern crabgrass [16] = assay: Test Example 5: herbicidal effect by foliage application, plastic box (Table 20, symbol F); format: in vivo, southern crabgrass (Digitaria ciliaris); conditions: foliage application, 320 g/ha, evaluated three weeks after application
# Summary of the method: as §3
# Italian ryegrass [17] = assay: Test Example 4: herbicidal effect by soil treatment (Table 19, symbol K); format: in vivo, Italian ryegrass (Lolium multiflorum)
# Summary of the method: as §2
# lambsquarters [18] = assay: Test Example 4: herbicidal effect by soil treatment (Table 19, symbol O); format: in vivo, lambsquarters (Chenopodium album)
# Summary of the method: as §2
# chickweed [19] = assay: Test Example 5: herbicidal effect by foliage application, plastic box (Table 20, symbol P); format: in vivo, common chickweed (Stellaria media); conditions: foliage application, 320 g/ha, evaluated three weeks after application
# Summary of the method: as §3
# wild oat [20] = assay: Test Example 4: herbicidal effect by soil treatment (Table 19, symbol I); format: in vivo, wild oat (Avena fatua)
# Summary of the method: as §2
# barnyard grass [21] = assay: Test Example 3: herbicidal effect by foliage application, Wagner pot (Table 18, symbol H); format: in vivo, barnyard grass (Echinochloa crus-galli)
# Summary of the method: as §1
# persian speedwell [22] = assay: Test Example 5: herbicidal effect by foliage application, plastic box (Table 20, symbol R); format: in vivo, Persian speedwell (Veronica persica); conditions: foliage application, 320 g/ha, evaluated three weeks after application
# Summary of the method: as §3
# redroot pigweed [23] = assay: Test Example 4: herbicidal effect by soil treatment (Table 19, symbol N); format: in vivo, redroot pigweed (Amaranthus retroflexus)
# Summary of the method: as §2
# velvetleaf [24] = assay: Test Example 5: herbicidal effect by foliage application, plastic box (Table 20, symbol M); format: in vivo, velvetleaf (Abutilon theophrasti); conditions: foliage application, 320 g/ha, evaluated three weeks after application
# Summary of the method: as §3
# Chinese sprangletop = assay: Test Example 3: herbicidal effect by foliage application, Wagner pot (Table 18, symbol D); format: in vivo, chinese sprangletop (Leptochloa chinensis)
# Summary of the method: as §1
# windgrass [25] = assay: Test Example 4: herbicidal effect by soil treatment (Table 19, symbol L); format: in vivo, windgrass (Apera spica-venti)
# Summary of the method: as §2
# [26] = amount of applied herbicide 320 g/ha
structure (smiles),measurement,setting,value
C#CCOc1ccc(-c2sc3ccc(F)cc3c2-c2c(OCC#C)c(C)nn(C)c2=O)cc1 [2-054],"herbicidal effect on E (rice flat sedge), rating 0-5",rice flat sedge; 320 g/ha,3 (Herbicidal rate of 40% or more and less than 70%)
same,"herbicidal effect rating, J: blackgrass",blackgrass [1]; 320 g/ha,0 (Herbicidal rate of 5% or less (almost no effect))
same,herbicidal effect on L: windgrass,windgrass [2],0 (Herbicidal rate of 5% or less (almost no effect))
same,herbicidal effect on G: green foxtail,green foxtail [3],3 (Herbicidal rate of 40% or more and less than 70%)
same,herbicidal effect on J: blackgrass,blackgrass [4],0 (Herbicidal rate of 5% or less (almost no effect))
same,"herbicidal effect rating, F: southern crabgrass",southern crabgrass [5]; 320 g/ha,0 (Herbicidal rate of 5% or less (almost no effect))
same,"herbicidal effect rating, P: chickweed",chickweed [6]; 320 g/ha,0 (Herbicidal rate of 5% or less (almost no effect))
same,"herbicidal effect rating, R: persian speedwell",persian speedwell [7]; 320 g/ha,3 (Herbicidal rate of 40% or more and less than 70%)
same,herbicidal effect on O: lambsquarters,lambsquarters [8],3 (Herbicidal rate of 40% or more and less than 70%)
same,"herbicidal effect rating, H: barnyard grass",barnyard grass [9]; 320 g/ha,0 (Herbicidal rate of 5% or less (almost no effect))
same,"herbicidal effect rating, M: velvetleaf",velvetleaf [10]; 320 g/ha,0 (Herbicidal rate of 5% or less (almost no effect))
same,herbicidal effect on I: wild oat,wild oat [11],0 (Herbicidal rate of 5% or less (almost no effect))
same,herbicidal effect on K: Italian ryegrass,Italian ryegrass [12],0 (Herbicidal rate of 5% or less (almost no effect))
same,"herbicidal effect rating, G: green foxtail",green foxtail [13]; 320 g/ha,0 (Herbicidal rate of 5% or less (almost no effect))
same,herbicidal effect on N: redroot pigweed,redroot pigweed [14],4 (Herbicidal rate of 70% or more and less than 90%)
same,herbicidal effect on H: barnyard grass,barnyard grass [15],3 (Herbicidal rate of 40% or more and less than 70%)
same,herbicidal effect on F: southern crabgrass,southern crabgrass [16],0 (Herbicidal rate of 5% or less (almost no effect))
same,"herbicidal effect rating, K: Italian ryegrass",Italian ryegrass [17]; 320 g/ha,0 (Herbicidal rate of 5% or less (almost no effect))
same,"herbicidal effect rating, O: lambsquarters",lambsquarters [18]; 320 g/ha,0 (Herbicidal rate of 5% or less (almost no effect))
same,herbicidal effect on P: chickweed,chickweed [19],5 (Herbicidal rate of 90% or more (almost completely withered))
same,"herbicidal effect rating, I: wild oat",wild oat [20]; 320 g/ha,0 (Herbicidal rate of 5% or less (almost no effect))
same,"herbicidal effect on H (barnyard grass), rating 0-5",barnyard grass [21]; 320 g/ha,4 (Herbicidal rate of 70% or more and less than 90%)
same,herbicidal effect on R: persian speedwell,persian speedwell [22],5 (Herbicidal rate of 90% or more (almost completely withered))
same,"herbicidal effect rating, N: redroot pigweed",redroot pigweed [23]; 320 g/ha,3 (Herbicidal rate of 40% or more and less than 70%)
same,herbicidal effect on M: velvetleaf,velvetleaf [24],4 (Herbicidal rate of 70% or more and less than 90%)
same,"herbicidal effect on D (Chinese sprangletop), rating 0-5",Chinese sprangletop; 320 g/ha,5 (Herbicidal rate of 90% or more (almost completely withered))
same,"herbicidal effect rating, L: windgrass",windgrass [25]; 320 g/ha,0 (Herbicidal rate of 5% or less (almost no effect))
Cc1ccc2sc(-c3ccc(F)cc3)c(-c3c(O)c(C)nn(C)c3=O)c2c1 [2-134],herbicidal effect on E: rice flat sedge,rice flat sedge; [26],5 (Herbicidal rate of 90% or more (almost completely withered))
same,"J: blackgrass, herbicidal effect rating",blackgrass [1]; [26],0 (Herbicidal rate of 5% or less (almost no effect))
same,herbicidal effect on L: windgrass,windgrass [2],0 (Herbicidal rate of 5% or less (almost no effect))
same,herbicidal effect on G: green foxtail,green foxtail [3],0 (Herbicidal rate of 5% or less (almost no effect))
same,herbicidal effect on J: blackgrass,blackgrass [4],0 (Herbicidal rate of 5% or less (almost no effect))
same,"F: southern crabgrass, herbicidal effect rating",southern crabgrass [5]; [26],2 (Herbicidal rate of 20% or more and less than 40%)
same,"P: chickweed, herbicidal effect rating",chickweed [6]; [26],4 (Herbicidal rate of 70% or more and less than 90%)
same,"R: persian speedwell, herbicidal effect rating",persian speedwell [7]; [26],4 (Herbicidal rate of 70% or more and less than 90%)
same,herbicidal effect on O: lambsquarters,lambsquarters [8],4 (Herbicidal rate of 70% or more and less than 90%)
same,"H: barnyard grass, herbicidal effect rating",barnyard grass [9]; [26],0 (Herbicidal rate of 5% or less (almost no effect))
same,"M: velvetleaf, herbicidal effect rating",velvetleaf [10]; [26],0 (Herbicidal rate of 5% or less (almost no effect))
same,herbicidal effect on I: wild oat,wild oat [11],0 (Herbicidal rate of 5% or less (almost no effect))
same,herbicidal effect on K: Italian ryegrass,Italian ryegrass [12],3 (Herbicidal rate of 40% or more and less than 70%)
same,"G: green foxtail, herbicidal effect rating",green foxtail [13]; [26],0 (Herbicidal rate of 5% or less (almost no effect))
same,herbicidal effect on N: redroot pigweed,redroot pigweed [14],5 (Herbicidal rate of 90% or more (almost completely withered))
same,herbicidal effect on H: barnyard grass,barnyard grass [15],0 (Herbicidal rate of 5% or less (almost no effect))
same,herbicidal effect on F: southern crabgrass,southern crabgrass [16],0 (Herbicidal rate of 5% or less (almost no effect))
same,"K: Italian ryegrass, herbicidal effect rating",Italian ryegrass [17]; [26],0 (Herbicidal rate of 5% or less (almost no effect))
same,"O: lambsquarters, herbicidal effect rating",lambsquarters [18]; [26],5 (Herbicidal rate of 90% or more (almost completely withered))
same,herbicidal effect on P: chickweed,chickweed [19],5 (Herbicidal rate of 90% or more (almost completely withered))
same,"I: wild oat, herbicidal effect rating",wild oat [20]; [26],0 (Herbicidal rate of 5% or less (almost no effect))
same,herbicidal effect on H: barnyard grass,barnyard grass [21]; [26],3 (Herbicidal rate of 40% or more and less than 70%)
same,herbicidal effect on R: persian speedwell,persian speedwell [22],5 (Herbicidal rate of 90% or more (almost completely withered))
same,"N: redroot pigweed, herbicidal effect rating",redroot pigweed [23]; [26],5 (Herbicidal rate of 90% or more (almost completely withered))
same,herbicidal effect on M: velvetleaf,velvetleaf [24],5 (Herbicidal rate of 90% or more (almost completely withered))
same,herbicidal effect on D: Chinese sprangletop,Chinese sprangletop; [26],0 (Herbicidal rate of 5% or less (almost no effect))
same,"L: windgrass, herbicidal effect rating",windgrass [25]; [26],0 (Herbicidal rate of 5% or less (almost no effect))

# Reference: patent publication US20230085307A1, “PYRIDAZINONE COMPOUND AND HERBICIDE” (NISSAN CHEMICAL CORPORATION, priority 2019, published 2023)
